Data taken from patent US11716992B2, “5A5B6C tricyclic spirolactone derivative, preparation method therefor and use thereof” (NANKAI UNIVERSITY, priority 2017, dated 2023).
“And” between values parts separate entries of the source, which are not always exact repeats. Equal values may be shown once. Read-outs that look alike come from different tables or passages of the source.

Columns and labels:
Caenorhabditis elegans = test: Insecticidal activity against Caenorhabditis elegans; assay type: in vivo; details: 100 μg/mL; for pest or weed control at 100 µg/mL: Caenorhabditis elegans, read-out: insecticidal activity, Caenorhabditis elegans
wheat Gibberella zeae = test: microbe, parasite or virus in culture; assay type: cell-based; details: for inhibition at 50 µg/mL: Fusarium graminearum, read-out: fungicidal activity (growth inhibition rate), GZ, 50 μg/mL
Pellicularia sasakii = test: Fungicidal activity, fungicide growth rate method, PS; assay type: cell-based; details: 50 μg/mL; for inhibition at 50 µg/mL: read-out: fungicidal activity (growth inhibition rate), PS
Alternaria solani = test: Fungicidal activity, fungicide growth rate method, AS; assay type: cell-based; details: 50 μg/mL; for inhibition at 50 µg/mL: Alternaria solani, read-out: fungicidal activity (growth inhibition rate), AS
Sclerotinia sclerotiorum = test: Fungicidal activity, fungicide growth rate method, SS; assay type: cell-based; details: 50 μg/mL; for inhibition at 50 µg/mL: Sclerotinia sclerotiorum
[1] = tested on: Phytophthora infestans (Mont.) de Bary; test: microbe, parasite or virus in culture; assay type: cell-based; details: Phytophthora infestans, read-out: fungicidal activity (growth inhibition rate), PI, 50 μg/mL
[2] = tested on: Helicoverpa armigera (Hübner); test: Insecticidal activity against Helicoverpa armigera (Hübner); assay type: in vivo; details: Helicoverpa armigera; 100 μg/mL; read-out: insecticidal activity, Helicoverpa armigera (Hübner)
[3] = tested on: Mythimna separate (Walker); test: Insecticidal activity against Mythimna separate (Walker); assay type: in vivo; details: Mythimna, 100 μg/mL; read-out: insecticidal activity, Mythimna separate (Walker)
Ostrinia furnacalis = test: Insecticidal activity against Ostrinia furnacalis; assay type: in vivo; details: Ostrinia furnacalis; 100 μg/mL; read-out: insecticidal activity, Ostrinia furnacalis
Rhizoctonia cerealis = test: Fungicidal activity, fungicide growth rate method, RC; assay type: cell-based; details: Ceratobasidium cereale, 50 μg/mL; read-out: fungicidal activity (growth inhibition rate), RC
Botrytis cinerea = test: Fungicidal activity, fungicide growth rate method, BC; assay type: cell-based; details: 50 μg/mL; for inhibition at 50 µg/mL: Botrytis cinerea, read-out: fungicidal activity (growth inhibition rate), BC
Physalospora piricola = test: Fungicidal activity, fungicide growth rate method, PP; assay type: cell-based; details: 50 μg/mL; for inhibition at 50 µg/mL: read-out: fungicidal activity (growth inhibition rate), PP
Tobacco Mosaic Virus = test: Anti-TMV inactivation activity on tobacco plants; assay type: in vivo; design: concentration or dose not given beside the values; details: compound mixed with TMV solution 30 minutes, lesions checked three days later
Cercospora arachidicola = test: Fungicidal activity, fungicide growth rate method, CA; assay type: cell-based; details: 50 μg/mL; for inhibition at 50 µg/mL: Mycosphaerella arachidis, read-out: fungicidal activity (growth inhibition rate), CA
[4] = tested on: Apis mellifera ligustica Spin; details: for Death number after 24 h / Death number after 48 h: per replicate of 10 bees

| Compound | pest or weed control at 100 µg/mL (Caenorhabditis elegans) | inhibition at 50 µg/mL (wheat Gibberella zeae) | inhibition at 50 µg/mL (Pellicularia sasakii) | inhibition at 50 µg/mL (Alternaria solani) | inhibition at 50 µg/mL (Sclerotinia sclerotiorum) | inhibition at 50 µg/mL [1] | pest or weed control at 100 µg/mL [2] | pest or weed control at 100 µg/mL [3] | pest or weed control at 100 µg/mL (Ostrinia furnacalis) | inhibition at 50 µg/mL (Rhizoctonia cerealis) | inhibition at 50 µg/mL (Botrytis cinerea) | inhibition at 50 µg/mL (Physalospora piricola) | TMV inactivation (anti-TMV activity) (Tobacco Mosaic Virus) | inhibition at 50 µg/mL (Cercospora arachidicola) | melting point | further results |
| --- | --- | --- | --- | --- | --- | --- | --- | --- | --- | --- | --- | --- | --- | --- | --- | --- |
| CCOC(=O)C(C(=O)OCC)C1CC(=O)[C@@]2(O)CC=CC[C@H]12 (stereo partly drawn) [Zyj06-113-2] | 7% | 0% | 25% | 3% | 36% | 40% | 5% | 20% | 15% | 0% | > 50% | 26% | 28% | 24% | – | Death rate after 48 h (%) ([4]; dosage 9.69 μg a.i./bee): 10.0%; Death number after 24 h ([4]; dosage 9.69 μg a.i./bee): 0; Death number after 48 h ([4]; dosage 9.69 μg a.i./bee): 0 and 2; Death rate after 48 h (%) ([4]; dosage 12.6 μg a.i./bee): 15.0%; Death number after 24 h ([4]; dosage 12.6 μg a.i./bee): 0; Death number after 48 h ([4]; dosage 12.6 μg a.i./bee): 1 and 2 |
| C=CC[C@@H]1C[C@]2(O)C(C(=O)OCC)C(=O)O[C@@]23CC=CC[C@H]13 (stereo partly drawn) [Zyj06-180] | 22% | 20% | 45% | 14% | > 50% | 19% | 5% | 20% | 0% | 0% | > 50% | 15% | 5% | 30% | – | Death rate after 48 h (%) ([4]; dosage 10.6 μg a.i./bee): 5.0%; Death number after 24 h ([4]; dosage 10.6 μg a.i./bee): 1 and 0; Death number after 48 h ([4]; dosage 10.6 μg a.i./bee): 1 and 0 |
| C=CC[C@@H]1C[C@]2(O)C[C@H](O[C@]34CCO[C@@]35CC=CC[C@H]5[C@H](CC=C)C4)O[C@@]23CC=CC[C@H]13 [Zyj07-30-1] | – | – | – | – | – | 21% | 0% | 0% | 0% | 0% | – | – | 8% | – | – | insecticidal activity, Caenorhabditis elegans (Caenorhabditis elegans): 5%; fungicidal activity (growth inhibition rate), GZ (wheat Gibberella zeae; 50 μg/mL): 0%; fungicidal activity (growth inhibition rate), PS (Pellicularia sasakii): 22%; fungicidal activity (growth inhibition rate), AS (Alternaria solani): 14%; fungicidal activity (growth inhibition rate), SS (Sclerotinia sclerotiorum): 95%; fungicidal activity (growth inhibition rate), BC (Botrytis cinerea): 5%; fungicidal activity (growth inhibition rate), PP (Physalospora piricola): 83%; fungicidal activity (growth inhibition rate), CA (Cercospora arachidicola): 41%; Death rate after 48 h (%) ([4]; dosage 5.12 μg a.i./bee): 0%; Death number after 24 h ([4]; dosage 5.12 μg a.i./bee): 0; Death number after 48 h ([4]; dosage 5.12 μg a.i./bee): 0; Death rate after 48 h (%) ([4]; dosage 10.6 μg a.i./bee): 5.0%; Death number after 24 h ([4]; dosage 10.6 μg a.i./bee): 0; Death number after 48 h ([4]; dosage 10.6 μg a.i./bee): 0 and 1 |
| C=CC[C@@H]1C[C@]2(O)CCO[C@@]23C[C@@H]2O[C@@H]2C[C@H]13 [Zyj07-31-1] | 18% | 7% | 0% | 14% | 0% | 15% | 0% | 0% | 0% | 7% | 36% | > 50% | 11% | 41% | – | – |
| C=CC[C@@H]1C[C@]2(O)CCO[C@@]23C[C@H]2O[C@H]2C[C@H]13 [Zyj07-31-2] | 8% | 3% | 18% | 22% | > 50% | 21% | 0% | > 30% | 0% | 21% | 18% | 31% | 15% | 27% | – | Death rate after 48 h (%) ([4]; dosage 6.51 μg a.i./bee): 0%; Death number after 24 h ([4]; dosage 6.51 μg a.i./bee): 0; Death number after 48 h ([4]; dosage 6.51 μg a.i./bee): 0; Death rate after 48 h (%) ([4]; dosage 9.36 μg a.i./bee): 10.0%; Death number after 24 h ([4]; dosage 9.36 μg a.i./bee): 0; Death number after 48 h ([4]; dosage 9.36 μg a.i./bee): 1 |
| C=CC[C@@H]1C[C@]2(O)CCO[C@@]23CC[C@H](O)C[C@H]13 [Zyj07-33] | 27% | 27% | 27% | 24% | 31% | 16% | 15% | > 30% | 10% | 41% | > 50% | > 50% | 9% | 46% | – | – |
| C=CC[C@@H]1C[C@]2(OC(C)=O)C[C@H](OC(C)=O)O[C@@]23CC=CC[C@H]13 [Zyj07-37-2] | 13% | 3% | 18% | 22% | > 50% | 21% | 15% | 20% | 0% | 21% | 18% | 31% | 28% | 27% | – | – |
| C=CC[C@@H]1C[C@]2(OC(C)=O)C[C@H](OC(C)=O)O[C@@]23C[C@H]2O[C@H]2C[C@H]13 [Zyj07-65-2] | 17% | 0% | 0% | 0% | 24% | 25% | 10% | > 30% | 5% | 7% | 41% | 12% | 29% | 24% | – | Death rate after 48 h (%) ([4]; dosage 9.57 μg a.i./bee): 5.0%; Death number after 24 h ([4]; dosage 9.57 μg a.i./bee): 0; Death number after 48 h ([4]; dosage 9.57 μg a.i./bee): 0 and 1; Death rate after 48 h (%) ([4]; dosage 10.9 μg a.i./bee): 0%; Death number after 24 h ([4]; dosage 10.9 μg a.i./bee): 0; Death number after 48 h ([4]; dosage 10.9 μg a.i./bee): 0 |
| C=CC[C@@H]1C[C@@]2(OC(C)=O)C[C@@H](CC=C)[C@H]3C[C@@H]4O[C@@H]4C[C@@]32O1 [Zyj07-67-2] | 20% | 0% | 36% | 0% | > 50% | 25% | 0% | 0% | 0% | 29% | > 50% | 13% | 29% | 24% | 100 to 102 °C | – |
| C=CC[C@@H]1C[C@]2(O)CCO[C@@]23C[C@@H](Cl)[C@H](O)C[C@H]13 [Zyj07-100] | – | 13% | 23% | 14% | – | 38% | 0% | 10% | 0% | 0% | 14% | 29% | – | 46% | 134 to 136 °C | – |
| C=CC[C@@H]1C[C@]2(O)CCO[C@@]23C[C@@H](O)[C@H](Cl)C[C@H]13 [Zyj07-101] | – | 3% | 0% | 5% | – | > 60% | 20% | > 30% | 15% | 29% | > 50% | > 50% | – | 14% | 143 to 144 °C | – |
| O=C1C[C@@]2(O)CC[C@H]3C[C@@H]4O[C@@H]4C[C@@]32O1 [Zyj07-102] | – | 27% | 0% | 0% | 0% | 23% | 0% | 0% | 0% | 0% | 41% | 42% | 14% | 14% | 119 to 120 °C | – |
